Assay results taken from patent publication EP0656889B1, “9-CHLOROPROSTAGLANDIN ESTERS AND AMIDES AND THEIR USE IN THE PREPARATION OF DRUGS” (SCHERING AKTIENGESELLSCHAFT, priority 1992, dated 1994).

What was measured:
[1] = system: Hairless Ratten; assay: Measurement of skin blood flow (laser Doppler flowmeter) after topical application, Beispiel 12; type: in vivo; conditions: topical on abdomen of anaesthetised female hairless rats, solvent 5% Isopropylmyristat in Ethanol, measured 2 and 4 h after application (time not given)
Method: (§1) Messung der Hautdurchblutung
Hairless Ratten (weiblich) werden gewogen (200-250g), mit 0,5ml 25% Urethan in 0,9% NaCl /100g/kg (2/3 i.p., 1/3 s.c.) narkotisiert und auf eine vorgeheizte Wärmeplatte der Fa. Jowitherm gelegt.
Auf dem Abdomen wird eine kreisförmige Fläche von 34mm Durchmesser ca. 2cm unterhalb der Sternumspitze markiert. Pro Tier wird eine Testsubstanz appliziert, die mit dem Randomisierungsprogramm RDRK zugeordnet wurde. Als Lösungsmittel wird 5% Isopropylmyristat in Ethanol verwendet. […] der jeweiligen Testlösung werden mit einer Eppendorf-Pipette gleichmäßig aufgetragen. Danach wird die behandelte Haut nochmals in drei Meßflächen von jeweils 18mm Druchmesser unterteilt und markiert. Die Hautdurchblutung wird 2 und 4 Stunden ( und gegebenenfalls 6 Stunden) nach der Applikation mit einem Laser Doppler Flowmeter (Firma Perimed) gemessen. Es werden an jedem Tier Dreifachmessungen an den markierten Stellen durchgeführt.

[2] = system: haarlosen Ratten; assay: Measurement of skin blood flow (non-invasive laser Doppler method) after topical application, Beispiel 13; type: in vivo, Ratten (Wister; hairless ); conditions: 4 h after local application on abdominal skin of anaesthetised (Urethan) hairless rats, solvent Isopropylmyristat in Ethanol 5/95 v/v
Text: as §1
Die Hautdurchblutung wurde mit der nichtinvasiven Laser-Doppler Methode bestimmt. Die Messsungen wurden 4 Stunden nach der lokalen Applikation der Substanzen auf der Bauchhaut von narkotisierten ( Urethan ) haarlosen Ratten* durchgeführt. Als Lösungsmittel wurde Isopropylmyristat in Ethanol verwendet ( 5/95; v/v ).
* Für diese Untersuchungen wurden weibliche Ratten (Wister; hairless ) mit einem Körpergewicht von 200-250g verwendet.

[3] = applied concentration 0,001 Prozent
[4] = applied concentration 0,003 Prozent

Row | Structure (SMILES) | Steigerung der Hautdurchblutung in Prozent [1, 3] | Steigerung der Hautdurchblutung in Prozent [1, 4] | Steigerung der Hautdurchblutung in Prozent [2, 3] | Steigerung der Hautdurchblutung in Prozent [2, 4]
1 | O=C(CCC/C=C\C[C@@H]1[C@@H](/C=C/[C@@H](O)C2CCCCC2)[C@H](O)C[C@H]1Cl)OCC(=O)c1ccccc1 [Beispiel 1, (5Z,13E)-(9R,11R,15S)-9-Chlor-15-cyclohexyl-11,15-dihydroxy-16,17,18,19,20-pentanor-5,13-prostadiensäurephenacylester] | 50 Prozent | 160 Prozent |  | 
2 | O=C(COC/C=C\C[C@@H]1[C@@H](/C=C/[C@@H](O)C2CCCCC2)[C@H](O)C[C@H]1Cl)OCC(=O)c1ccccc1 [Beispiel 3, (5Z,13E)-(9R,11R,15S)-9-Chlor-3-oxa-15-cyclohexyl-11,15-dihydroxy-16,17,18,19,20-pentanor-5,13-prostadiensäurephenacylester] | 139 Prozent | 146 Prozent |  | 
3 | CCOC(=O)CCC/C=C\C[C@@H]1[C@@H](/C=C/[C@@H](O)C2CCCCC2)[C@H](O)C[C@H]1Cl [Beispiel 6, (5Z,13E)-(9R,11R,15S)-9-Chlor-15-cyclohexyl-11,15-dihydroxy-16,17,18,19,20-pentanor-5,13-prostadiensäureethylester] |  |  | 115 Prozent | 197 Prozent
4 | CC(C)OC(=O)CCC/C=C\C[C@@H]1[C@@H](/C=C/[C@@H](O)C2CCCCC2)[C@H](O)C[C@H]1Cl [Beispiel 7, (5Z,13E)-(9R,11R,15S)-9-Chlor-15-cydohexyl-11,15-dihydroxy-16,17,18,19,20-pentanor-5,13-prostadiensäureisopropylester] |  |  | 93 Prozent | 183 Prozent
5 | CCOC(=O)COC/C=C\C[C@@H]1[C@@H](/C=C/[C@@H](O)C2CCCCC2)[C@H](O)C[C@H]1Cl [Beispiel 9, (5Z,13E)-(9R,11R,15S)-9-Chlor-3-oxa-15-cyclohexyl-11,15-dihydroxy-16,17,18,19,20-pentanor-5,13-prostadiensäureethylester] |  |  | 200 Prozent | 325 Prozent
6 | CC(C)OC(=O)COC/C=C\C[C@@H]1[C@@H](/C=C/[C@@H](O)C2CCCCC2)[C@H](O)C[C@H]1Cl [Beispiel 10, (5Z,13E)-(9R,11R,15S)-9-Chlor-3-oxa-15-cyclohexyl-11,15-dihydroxy-16,17,18,19,20-pentanor-5,13-prostadiensäureisopropylester] |  |  | 232 Prozent | 307 Prozent
